Results: paper PMC11045757, “Group 3 medulloblastoma transcriptional networks collapse under domain specific EP300/CBP inhibition” (Nature Communications, 2024)
Where “and” joins values, the source holds several entries; their conditions need not be identical. Equal values may be shown once.

Experiments:
[1] = system: MB002 cells; assay: ERCC spike-in RNAseq gene expression after 6 h treatment; format: cell-based; conditions: MB002, replicate values, Supplementary Fig 6c
Procedure: (§1) First, we examined global changes in gene expression induced by drug treatment.
(§2) External RNA consortium control RNAs (ERCC, Ambion) were added directly to Trizol, based on cell number prior to RNA extraction. RNA samples were treated with DNAse I (Invitrogen) prior to recovery. Samples were obtained in biological triplicate. Total RNA was subjected to ribosomal RNA depletion prior to library preparation using the Truseq Stranded Total Library Prep Kit (Illumina) and sequencing on a Nextseq-500 (paired end, 100 bp reads).
(§3) Sequences were aligned using HISAT2 (version 2.1.0)[77] in paired-end mode with default parameters to build version hg19 of the human genome to which the sequences of the ERCC synthetic spike-in RNAs (http://tools.invitrogen.com/downloads/ERCC92.fa) had been added. Per-gene expression was quantified using htseq-count[78] with parameters “-i gene_id --stranded=reverse -f bam -m,” and version 87 of the canonical GRCh37 gene list from RefSeq to which ERCC coordinates were added. TPM-normalized (Transcripts Per Million) expression was then computed for each gene and synthetic ERCC spike-in RNA. Per-gene exon length was calculated across all exons of all isoforms of each gene. The standard TPM-normalization strategy is: normterm = sum of (read count * read length/exon length) across all genes. TPM = read count * read length/exon length * 1e6/normterm. We used a loess regression to normalize the TPM values across all samples of the batch, using only the spike-in values to fit the loess by the “affy” R package[79] with function loess.normalize. This function allowed us to perform loess regression on a matrix of TPM values and used the ERCC subset of data for fitting the loess. The output from this was a matrix of normalized TPM values controlled by ERCC spike-ins.
(§4) We used the elbow method[81] to determine the k value in k-means cluster analysis.
(§5) Dependency analysis was performed using the 22Q4 release of the DepMap dataset, comprising seven medulloblastoma cell lines: UW228, DAOY, ONS76, D458, D425, D283MED, D341MED. Dependency was defined as a Chronos gene effect score of <−0.5, and gene lists were filtered for dependency in >2/7 medulloblastoma cell lines. […] PANTHER was used to define gene annotations, with unknown annotations assigned using individual assessment using the Genecards.org resource.

[2] = system: HDMB03 (HDMBO3) cells; assay: as above; format: cell-based; conditions: HDMBO3, replicate values, Supplementary Fig 6c
Procedure: as §1, §2, §3, §4, §5

| SMILES | Normalized MYC expression [1] | Normalized MYC expression [2] |
| --- | --- | --- |
| CO[C@H]1CC[C@H](n2c([C@@H]3CCCC(=O)N3c3ccc(F)c(F)c3)nc3cc(-c4c(C)noc4C)ccc32)CC1 [CCS1477] | 0.3944 and 0.5851 and 0.5892 | 0.5957 and 0.4799 and 0.4227 |
| CNC(=O)Nc1ccc2c(c1)CCC21OC(=O)N(CC(=O)N(Cc2ccc(F)cc2)C(C)C(F)(F)F)C1=O (stereo not shown) [Compound A485] | 0.2801 and 0.5062 and 0.4843 | 0.9151 and 0.6386 and 0.4867 |
